Test results taken from PubChem BioAssay AID1996.
Converted amounts (≈) assume the structure as drawn.

settings: buffer; pH 7.4; 200.0 µM

Question: Which solubility kinetic does the source give for COc1cccc(CC2(CO)CCN(Cc3cn(C)nc3C)CC2)c1 here?
Answer: Its solubility kinetic is > 51.5 µg/mL.

Question: Which solubility kinetic does the source give for COC(=O)c1cccc(NC(=S)N2CCN(C)CC2)c1 here?
Answer: The solubility kinetic was 41.9 µg/mL (≈ 143 µM).

Question: With Cl.O=C(CN1CCOCC1)NCc1ccc(F)cc1 as the molecule, how does the solubility kinetic read?
Answer: The solubility kinetic was > 43.3 µg/mL.

Question: Which solubility kinetic does the source give for COc1ccc(NC(=O)CC(C(=O)O)C(C)c2ccccc2)cc1 (centres undefined) here?
Answer: The solubility kinetic was > 49.1 µg/mL.

Question: For CCC(C)(CCNC(=O)Cc1ccccc1)c1ccccc1OC (centres undefined), which solubility kinetic is on record?
Answer: The solubility kinetic was 15 µg/mL (≈ 46.1 µM).

Question: With O=C1CCN(Cc2ccccc2)C(=O)N1c1ccccc1 as the molecule, how does the solubility kinetic read?
Answer: The solubility kinetic was > 42 µg/mL.

Question: Which solubility kinetic does the source give for CN=C(N)NC(=O)Nc1c(C)cccc1C.Cl here?
Answer: Its solubility kinetic is > 38.5 µg/mL.

Question: With Cc1ccc(NC(=O)c2cc(-c3ccccc3)n(CCCN3CCOCC3)c2C)cc1 as the molecule, how does the solubility kinetic read?
Answer: Its solubility kinetic is 19.9 µg/mL (≈ 47.7 µM).

Question: For CC(C)(C)c1ccc(C(=O)NCC(=O)NCc2ccccn2)cc1, which solubility kinetic is on record?
Answer: The solubility kinetic was 42.9 µg/mL (≈ 132 µM).

Question: With CC(=O)Nc1ccc(C(=O)CN2C(=O)NC3(CCCc4ccccc43)C2=O)c(F)c1 (centres undefined) as the molecule, how does the solubility kinetic read?
Answer: The solubility kinetic was 53 µg/mL (≈ 129 µM).

Question: For O=C(N/C(=C/c1ccc(F)cc1)C(=O)N1CCCC1)c1ccccc1, which solubility kinetic is on record?
Answer: The solubility kinetic was > 50.8 µg/mL.

Question: With CCOC(=O)c1cc(Sc2ccccc2N)cc(C(=O)OCC)n1 as the molecule, how does the solubility kinetic read?
Answer: Its solubility kinetic is < 0.4 µg/mL.

Question: With CC(C)C(=O)Nc1c(-c2ccccc2)c(=O)c2ccccc2n1C as the molecule, how does the solubility kinetic read?
Answer: Its solubility kinetic is 9.2 µg/mL (≈ 28.7 µM).

Question: With Cc1cc(NC(=O)c2ccccc2C)no1 as the molecule, how does the solubility kinetic read?
Answer: Its solubility kinetic is > 32.4 µg/mL.

Question: For O=C(c1ccccc1)c1ccc(C(=O)N2CCN(c3ccc(O)cc3)CC2)cc1, which solubility kinetic is on record?
Answer: The solubility kinetic was 47.4 µg/mL (≈ 123 µM).

Question: With O=C(CNC(=O)C1CCCCC1)Nc1ccc(F)c(Cl)c1 as the molecule, how does the solubility kinetic read?
Answer: Its solubility kinetic is 8.2 µg/mL (≈ 26.2 µM).

Question: Which solubility kinetic does the source give for COc1ccc(CCNCc2ccccc2)cc1.O=C(O)C(=O)O here?
Answer: Its solubility kinetic is > 49.7 µg/mL.

Question: For CC1CN(C(=O)c2cc3cc(Cl)ccc3[nH]2)CC(C)O1 (centres undefined), which solubility kinetic is on record?
Answer: Its solubility kinetic is 24.3 µg/mL (≈ 83 µM).

Question: With Cc1noc2ncnc(N3CCCCC3)c12 as the molecule, how does the solubility kinetic read?
Answer: The solubility kinetic was 27.8 µg/mL (≈ 127 µM).

Question: For O=S(=O)(c1ccc2[nH]ccc2c1)N1CCCCCC1, which solubility kinetic is on record?
Answer: Its solubility kinetic is > 41.8 µg/mL.

Question: With COCCn1c(C)cc(C(=O)COC(=O)c2ccc(S(=O)(=O)N(C)C)cc2)c1C as the molecule, how does the solubility kinetic read?
Answer: Its solubility kinetic is 2.4 µg/mL (≈ 5.68 µM).

Question: With Cc1ccc(C(=O)CNc2ccccc2)cc1 as the molecule, how does the solubility kinetic read?
Answer: Its solubility kinetic is 4.1 µg/mL (≈ 18.2 µM).

Question: Which solubility kinetic does the source give for CS(=O)(=O)c1ccc(C(=O)OCC(=O)NCc2cccs2)cc1[N+](=O)[O-] here?
Answer: Its solubility kinetic is 16.1 µg/mL (≈ 40.4 µM).

Question: For COC(=O)c1[nH]c2c(c1C(=O)OC)CCc1ccccc1-2, which solubility kinetic is on record?
Answer: The solubility kinetic was 19.4 µg/mL (≈ 68 µM).

Question: With Cc1ccc(NC(=S)NC(=O)C2CC2)cc1Cl as the molecule, how does the solubility kinetic read?
Answer: The solubility kinetic was 2.9 µg/mL (≈ 10.8 µM).

Question: For O=C(CNC(=O)c1ccc(Cl)cc1)NC(CO)c1ccccc1 (centres undefined), which solubility kinetic is on record?
Answer: The solubility kinetic was 32.6 µg/mL (≈ 98 µM).

Question: With Cc1ccccc1C(=O)Nc1ccc(S(=O)(=O)Nc2onc(C)c2C)cc1 as the molecule, how does the solubility kinetic read?
Answer: The solubility kinetic was 50.5 µg/mL (≈ 131 µM).

Question: With COc1cc(C(=O)NCC(c2cccs2)N2CCOCC2)cc(Br)c1OCc1ccccc1 (centres undefined) as the molecule, how does the solubility kinetic read?
Answer: Its solubility kinetic is 6.3 µg/mL (≈ 11.9 µM).

Question: With CCOc1ccccc1NC(=O)c1cccc(NC(=O)C2CCCC2)c1 as the molecule, how does the solubility kinetic read?
Answer: The solubility kinetic was 13.4 µg/mL (≈ 38 µM).

Question: With O=C(CN1C(=O)NC(c2ccccc2)(c2ccccc2)C1=O)NCc1ccc(F)cc1 as the molecule, how does the solubility kinetic read?
Answer: Its solubility kinetic is 6.4 µg/mL (≈ 15.3 µM).

Question: For Cc1cccc(C(C)C)c1NC(=O)c1c(-c2ccccc2)noc1C, which solubility kinetic is on record?
Answer: The solubility kinetic was 0.6 µg/mL (≈ 1.79 µM).

Question: With CN(C)c1cc(-c2ccc(Br)cc2)oc(=O)c1Cl as the molecule, how does the solubility kinetic read?
Answer: The solubility kinetic was 1.1 µg/mL (≈ 3.35 µM).

Question: Which solubility kinetic does the source give for COc1ccc(S(=O)(=O)Nc2ncccc2C)c2ccccc12 here?
Answer: Its solubility kinetic is 37.6 µg/mL (≈ 114 µM).

Question: Which solubility kinetic does the source give for O=C(COc1cc(Cl)ccc1Cl)N1CCNC1=O here?
Answer: Its solubility kinetic is > 43.4 µg/mL.

Question: With CC(=O)c1c(-c2ccc(Cl)cc2)c2ccccc2[nH]c1=O as the molecule, how does the solubility kinetic read?
Answer: Its solubility kinetic is 0.9 µg/mL (≈ 3.02 µM).

Question: For Nc1ccc(S(=O)(=O)NC(Cc2ccccc2)C(=O)O)cc1 (centres undefined), which solubility kinetic is on record?
Answer: The solubility kinetic was 32.9 µg/mL (≈ 103 µM).

Question: With C[n+]1cn(Cc2ccc(C#N)cc2)c2ccccc21.[Cl-] as the molecule, how does the solubility kinetic read?
Answer: Its solubility kinetic is 39.4 µg/mL.

Question: Which solubility kinetic does the source give for CN(Cc1ccccc1)C(=O)COC(=O)c1cc2ccccc2oc1=O here?
Answer: Its solubility kinetic is > 52.7 µg/mL.

Question: Which solubility kinetic does the source give for O=C(Cc1ccccc1F)Nc1ccccc1-c1ccccc1 here?
Answer: The solubility kinetic was 7.1 µg/mL (≈ 23.3 µM).

Question: For O=C(Nc1ccccc1)c1cn2ccccc2n1, which solubility kinetic is on record?
Answer: The solubility kinetic was 14.7 µg/mL (≈ 62 µM).

Question: With O=C(NC(=S)Nc1ccccc1[N+](=O)[O-])c1ccccc1 as the molecule, how does the solubility kinetic read?
Answer: Its solubility kinetic is 4.1 µg/mL (≈ 13.6 µM).

Question: With O=C(Nc1ccc(Oc2cccnc2)nc1)c1ccc(C(F)(F)F)cc1 as the molecule, how does the solubility kinetic read?
Answer: The solubility kinetic was 10.3 µg/mL (≈ 28.7 µM).

Question: With Cc1onc(-c2ccccc2)c1C(=O)N1CCN(c2ccccn2)CC1 as the molecule, how does the solubility kinetic read?
Answer: The solubility kinetic was > 52.3 µg/mL.

Question: For CC(CC(=O)Nc1nccs1)c1ccccc1 (centres undefined), which solubility kinetic is on record?
Answer: The solubility kinetic was 32.5 µg/mL (≈ 132 µM).

Question: Which solubility kinetic does the source give for Cc1ccc(CNC(=O)C2COc3ccccc3O2)cc1 (centres undefined) here?
Answer: Its solubility kinetic is 20.1 µg/mL (≈ 70.9 µM).

Question: For COc1ccc(Nc2nc(OC)nc(N3CCOCC3)n2)cc1, which solubility kinetic is on record?
Answer: Its solubility kinetic is 21.8 µg/mL (≈ 68.7 µM).

Question: With CC(=O)Nc1cccc(C(=O)NCCc2ccco2)c1 as the molecule, how does the solubility kinetic read?
Answer: The solubility kinetic was > 40.8 µg/mL.

Question: With Cc1cnc(C(=O)NC2CCSc3ccccc32)cn1 (centres undefined) as the molecule, how does the solubility kinetic read?
Answer: The solubility kinetic was 26.2 µg/mL (≈ 91.8 µM).

Question: With CC(C)[C@H](NC(N)=O)C(=O)NCCc1ccc(Cl)cc1Cl as the molecule, how does the solubility kinetic read?
Answer: The solubility kinetic was 48.2 µg/mL (≈ 145 µM).

Question: With O=C(CCc1nc(-c2ccccc2Cl)no1)NCc1ccco1 as the molecule, how does the solubility kinetic read?
Answer: Its solubility kinetic is > 49.8 µg/mL.

Question: With O=C(/C=C/c1cccc(Br)c1)NCc1ccncc1 as the molecule, how does the solubility kinetic read?
Answer: Its solubility kinetic is 37.2 µg/mL (≈ 117 µM).

Question: For Cc1ccc(NC(=O)Cc2ccsc2)cc1Cl, which solubility kinetic is on record?
Answer: The solubility kinetic was 4.6 µg/mL (≈ 17.3 µM).

Question: For CC(C)c1nc(SCC(=O)c2ccc(F)cc2)c2ccccc2n1, which solubility kinetic is on record?
Answer: The solubility kinetic was 1.7 µg/mL (≈ 4.99 µM).

Question: With CCCNC(=O)c1ccc(COc2ccc(C)cc2)o1 as the molecule, how does the solubility kinetic read?
Answer: Its solubility kinetic is > 41 µg/mL.

Question: With O=C(/C=C/c1cccnc1)c1cccc(O)c1 as the molecule, how does the solubility kinetic read?
Answer: Its solubility kinetic is 29.9 µg/mL (≈ 133 µM).

Question: For Cc1cc(C)nc(Nc2ccc(Cl)cc2C)n1.Cl, which solubility kinetic is on record?
Answer: The solubility kinetic was 21.2 µg/mL.

Question: For CCC1(CC)NC(=O)N(CC(=O)N2CCc3ccccc32)C1=O, which solubility kinetic is on record?
Answer: The solubility kinetic was 45.8 µg/mL (≈ 145 µM).

Question: With Cc1c(NS(=O)(=O)c2cccc(C(=O)N3CCCC3)c2)c(=O)n(-c2ccccc2)n1C as the molecule, how does the solubility kinetic read?
Answer: The solubility kinetic was > 66.1 µg/mL.

Question: With COc1cc([N+](=O)[O-])ccc1NC(=O)Cc1ccccc1 as the molecule, how does the solubility kinetic read?
Answer: The solubility kinetic was 5.5 µg/mL (≈ 19.2 µM).
